First: NC(=O)NC(CC(=O)O)c1ccc(Cl)cc1 (stereo unspecified)
Second: CC(C)(C)c1ccc(C(O)CCC(=O)O)cc1 (stereo unspecified)
The melting point of the first is higher: 198 to 200 °C for the first, 127 to 129 °C for the second.

First: Cc1nn(C)c(N)c1SC#N
Second: Cc1nn(C)c2sc(C(=O)NC(C)C(=O)O)cc12 (stereo unspecified)
The melting point of the first is lower: 176 to 178 °C for the first, 269 to 271 °C for the second.

Compared with `CCOC(=O)c1cnn2c3c(cnc12)CCOC3=O`, `CCOC(=O)c1c[nH]n(CC(=O)O)c1=N` is lower in melting point: 246 to 248 °C for the first, 195 to 197 °C for the second.

First: Cc1nn(-c2ccccc2)c(C)c1NC(=O)CCCl
Second: Cc1ccc(-c2nn(-c3ccccc3)cc2CO)cc1C
The melting point of the first is lower: 119 to 121 °C for the first, 134 to 136 °C for the second.

First: CC(C)NC(=O)CNS(=O)(=O)CCC(=O)O
Second: COC(=O)c1ccccc1CCC(=O)O
The melting point of the first is higher: 125 to 127 °C for the first, 74 to 76 °C for the second.

First: COC(=O)c1ccc(Br)s1
Second: O=C(O)c1csc(-c2ccc(Br)s2)n1
The melting point of the first is lower: 60 to 62 °C for the first, 248 to 250 °C for the second.

First: O=C(Cc1ncc[nH]1)c1ccc(Cl)cc1F
Second: O=C(O)c1csc(-c2ccc(Cl)cc2Cl)n1
The melting point of the first is lower: 140 to 142 °C for the first, 204 to 206 °C for the second.

First: FC(F)(F)c1ccc(OCc2ccc(Cl)nc2)cc1
Second: COCCOc1ccc(NC(=O)OCC(F)(F)F)cn1
The melting point of the first is higher: 106 to 108 °C for the first, 86 to 88 °C for the second.

Compared with `COc1ccc(C(C)(C)C(=O)O)cc1OC`, `COc1cc(N)c(C(N)=O)cc1OC` is higher in melting point: 84 to 86 °C for the first, 142 to 144 °C for the second.

First: O=C(O)c1ccc(-c2nnn[nH]2)cc1
Second: O=C(O)c1cnn(-c2ccc([N+](=O)[O-])cc2)c1
The melting point of the first is higher: 282 to 284 °C for the first, 258 to 260 °C for the second.

First: O=C(O)Cc1ccon1
Second: N#CCC(=O)NCc1ccco1
The melting point of the first is lower: 84 to 86 °C for the first, 93 to 95 °C for the second.

First: O=C(O)c1ccc(=O)n(-c2ccc(F)cc2)n1
Second: CCCCc1ccc(N2C(=O)C=CC2=O)cc1
The melting point of the first is higher: 239 to 241 °C for the first, 40 to 44 °C for the second.

First: Cc1cc(C(N)=S)ccc1F
Second: CC(C)(C)NS(=O)(=O)c1ccc(F)c(N)c1
The melting point of the first is lower: 89 to 91 °C for the first, 99 to 101 °C for the second.

Compared with `Cc1nn(-c2cccc(C(F)(F)F)c2)c(C)c1C(=O)C(=O)O`, `O=C(O)C1(c2cccc(C(F)(F)F)c2)CCC1` is lower in melting point: 191 to 193 °C for the first, 92 to 94 °C for the second.

First: Cc1nc2nc(Br)ccc2o1
Second: Cc1ccccc1-c1nn[nH]n1
The melting point of the first is lower: 76 to 78 °C for the first, 153 to 155 °C for the second.

First: COc1cc(OC)cc(C(=O)N2CCC(C(=O)O)CC2)c1
Second: O=C(O)c1cccc(-c2noc(C3CC3)n2)c1
The melting point of the first is higher: 164 to 166 °C for the first, 158 to 160 °C for the second.

Compared with `OCCNc1ncnc2ccccc12`, `NCc1csc(CNC(=O)c2ccccc2)n1` is lower in melting point: 172 to 174 °C for the first, 84 to 86 °C for the second.

First: N#CCC(=O)Nc1cccc(Cl)c1
Second: NS(=O)(=O)c1cccc(NC(=O)c2ccc(Cl)cc2)c1
The melting point of the first is higher: 139 to 141 °C for the first, 93 to 96 °C for the second.

First: Clc1ccc(-n2cccn2)nn1
Second: Nc1ccnc2ncnn12
The melting point of the first is lower: 142 to 144 °C for the first, 264 to 266 °C for the second.

Compared with `COc1ccc(C=O)c([N+](=O)[O-])c1`, `O=Cc1c(O)ccc([N+](=O)[O-])c1Cl` is higher in melting point: 91 to 93 °C for the first, 118 to 120 °C for the second.

Compared with `O=C(O)C1CCCn2c1n[nH]c2=O` (stereo unspecified), `CN1C(=O)CCC(C(=O)O)C1c1ccccc1` (stereo unspecified) is higher in melting point: 121 to 123 °C for the first, 204 to 206 °C for the second.

Compared with `O=C1CCc2c(O)cccc21`, `NNc1ccc2cccc(O)c2n1` is lower in melting point: 242 to 244 °C for the first, 156 to 158 °C for the second.

First: Sc1nnc(NCc2ccco2)s1
Second: C#CCOc1ccc(NC)cc1
The melting point of the first is higher: 124 to 126 °C for the first, 46 to 48 °C for the second.

Compared with `OC1CCNCc2ccccc21` (stereo unspecified), `O=C(Nc1ccccc1[N+](=O)[O-])N1CCCC1` is lower in melting point: 139 to 141 °C for the first, 99 to 101 °C for the second.

First: COCCN(C(=O)CCl)c1c(N)n(CC(C)C)c(=O)[nH]c1=O
Second: O=C(O)c1cnc2c(c1)c(=O)[nH]c(=O)n2Cc1ccccc1
The melting point of the first is lower: 204 to 206 °C for the first, 278 to 280 °C for the second.

Compared with `O=C1C(Br)CCN1C1CCOCC1` (stereo unspecified), `Cc1sc2nc(CN3CCOCC3)nc(Cl)c2c1C` is higher in melting point: 67 to 69 °C for the first, 102 to 104 °C for the second.

First: O=C(O)c1cccc2c1C(=O)c1ccccc1C2=O
Second: O=C1c2ccccc2C(=O)N1CC1CN(Cc2ccccc2)CCO1 (stereo unspecified)
The melting point of the first is higher: 293 to 295 °C for the first, 136 to 138 °C for the second.

First: NS(=O)(=O)c1cc(Cl)ccc1[N+](=O)[O-]
Second: COC(=O)c1cccc(S(N)(=O)=O)c1
The melting point of the first is higher: 157 to 159 °C for the first, 131 to 133 °C for the second.

First: CC1(C)NC(=O)N(CC(=O)O)C1=O
Second: O=C(O)c1cc([N+](=O)[O-])cc(Cl)c1F
The melting point of the first is lower: 167 to 169 °C for the first, 180 to 182 °C for the second.

First: COc1cc(CCl)cc(Br)c1OC
Second: CCOC(=O)c1c(-c2ccc(OC)c(OC)c2)csc1N
The melting point of the first is lower: 60 to 62 °C for the first, 223 to 225 °C for the second.

First: O=C(O)c1ccc(/C=C/c2ccc3ccccc3n2)cc1
Second: COc1ccc(NC(=O)C(Cl)c2ccccc2)cc1 (stereo unspecified)
The melting point of the first is higher: 263 to 265 °C for the first, 152 to 156 °C for the second.

First: Cc1ccc(C)c(-c2n[nH]c(=O)c3ccccc23)c1
Second: Nc1ccc2c[nH]nc2c1
The melting point of the first is higher: 216 to 218 °C for the first, 204 to 206 °C for the second.

Compared with `CNC(=O)Cc1ccc(N)cc1`, `CC(CC#N)Sc1ccccc1NC(=O)CCl` (stereo unspecified) is higher in melting point: 84 to 86 °C for the first, 89 to 91 °C for the second.

First: Nc1cc(N2CCCS2(=O)=O)ccc1Cl
Second: CS(=O)(=O)c1cccc(S(=O)(=O)Cl)c1
The melting point of the first is higher: 139 to 141 °C for the first, 87 to 89 °C for the second.

Compared with `NNC(=S)NC1CCCC1`, `COCCNC(=O)NC(=O)CCl` is higher in melting point: 76 to 78 °C for the first, 103 to 105 °C for the second.

Compound `NC(C(=O)O)(c1cc(F)cc(F)c1)C(F)(F)F` (stereo unspecified) has a melting point of 121 to 123 °C.

Source: a melting point compilation (Tetko et al.)
